# Legend:
# [1] = system: MCF7 human breast carcinoma cells; test: Cell viability / proliferation assay (CELLTITER-GLO, dose matrix) in MCF7 cells; assay type: cell-based
# Description: FIG. 1 is a series of graphs showing the effect of the combination of COMPOUND A with ANTIBODY A on MCF7 cell proliferation under the presence of IGF-1 (100 ng/ml). Briefly, MCF7 cells were treated in 384-well format for 5 days with COMPOUND A and ANTIBODY A in the presence of 100 ng/ml of IGF1 in SD medium. […] Each data point represents averaged data from 3 wells+standard deviation, and the color spectrum also represents the level of the inhibition. A red rectangle highlights the region where the combination is more efficacious than the single agents the same dose.
# COMPOUND A (10 mM), stored in aliquots at −20° C. ANTIBODY A (0.2 mM in 1% BSA), stored in aliquots at 4° C. […]
# Cell viability was determined by measuring cellular ATP content using the CELLTITER-GLO (CTG) luminescent cell viability assay (Promega). […] An equal volume of the CTG reagents was added to each well at the end of the compound treatment and luminescence was recorded on an ENVISION plate reader (Perkin Elmer). Reduced and enhanched luminescent signal values (responses) were calculated relative to untreated (control) cells. […]
# The synergistic interaction (analyzed using Chalice software [CombinatoRx, Cambridge Mass.]) was calculated by comparing the response from a combination to the response of the agent acting alone, against the drug-with-itself dose-additive reference model. […]
# MCF7 xenograft = MCF7 xenograft in mice, tumor volume; assay type: in vivo
# Description: MCF-7 cells (purchased from American Type Culture Collection (ATCC)) were tested free of mycoplasma and viral contamination in the IMPACT VIII PCR assay panel (RADIL, MU Research Animal Diagnostic Laboratory, Columbia, Mo.). MCF-7 cells were cultured in EMEM medium (ATCC#30-2003) containing 10% heat-inactivated fetal bovine serum. Mice were implanted with 17b-estradiol pellets, 0.18 mg/pellet, 90-day release (Innovative research of America Catalog #NE-121), between the shoulder blades three days before the cell implant.
# Treatment started on day 21 and concluded by day 59. Tumor volume of each group was measured. The effect of COMPOUND A and ANTIBODY A, as monotherapy and combination, was assessed by comparing: • (a) the percent change between Day 1 and endpoint day in the mean tumor volume of the treated group (T) and the control group (C) (herein referred to as “T/C”), and • (b) the percent change between Day 1 and the endpoint day in the mean tumor volume of the treated group compared to its initial volume (herein referred to as “T/T0”).
smiles,measurement,setting,value
"Cc1nc(NC(=O)N2CCC[C@H]2C(N)=O)sc1-c1ccnc(C(C)(C)C(F)(F)F)c1 [COMPOUND A, (S)-Pyrrolidine-1,2-dicarboxylic acid 2-amide 1-({4-methyl-5-[2-(2,2,2-trifluoro-1,1-dimethyl-ethyl)-pyridin-4-yl]-thiazol-2-yl}-amide)]",MCF7 growth inhibition in vitro (summary in words),"[1]; MCF7, Experiment 1 summary",concentration-dependent tumor growth inhibition
same,anti-proliferative activity (in words),"[1]; MCF7, single agent, either in the presence or absence of IGF1",concentration dependent anti-proliferative activity
same,tumor outcome in MCF7 xenograft (summary in words),"MCF7 xenograft; MCF7 xenograft in mice, Experiment 2 summary",tumor stasis
same,"T/C (percent change in mean tumor volume, treated vs control group)","MCF7 xenograft; MCF7 xenograft mice, COMPOUND A 30 mg/kg qd po, ANTIBODY A 12 mg/kg q2w ip, treatment day 21 to day 59",10%
